Where two headings read alike, the source gives them in different places.
Target: T1, human recombinant GPR65 (Homo sapiens, UniProt Q8IYL9)
T1 construct: host or cells: 1321N1 human astrocytoma cells (1321N1-hrGPR65)
Assay: Human GPR65 cAMP HTRF antagonist assay
Assay type: cell-based
In short: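 1321N1 astrocytoma cells stably expressing GPR65 were preincubated with compound for 30 min at room temperature in KRH pH 7.6 with 1 mM IBMX and 200 μM EDTA. They were then stimulated at assay pH 7.2 for 30 min, with controls at pH 7.9. cAMP was read by HTRF (665/620 nm), normalised to controls and fitted by 4-parameter logistic to give IC50.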

T1 sequence (Q8IYL9 whole entry): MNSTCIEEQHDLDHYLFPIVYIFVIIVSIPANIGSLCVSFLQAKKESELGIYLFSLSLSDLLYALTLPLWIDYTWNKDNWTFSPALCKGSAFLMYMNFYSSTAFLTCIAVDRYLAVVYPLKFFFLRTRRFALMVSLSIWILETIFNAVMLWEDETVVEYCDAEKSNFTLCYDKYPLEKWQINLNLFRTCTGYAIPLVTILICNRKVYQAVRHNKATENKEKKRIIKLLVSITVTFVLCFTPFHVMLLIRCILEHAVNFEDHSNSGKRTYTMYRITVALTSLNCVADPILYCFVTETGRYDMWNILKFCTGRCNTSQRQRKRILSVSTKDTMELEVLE

| Structure (SMILES) | IC50 (1321N1-hrGPR65 cells, assay pH 7.2, cAMP HTRF, read-out: hGPR65 IC50 (activity class)) [nM] | IC50 [nM] |
| --- | --- | --- |
| O=C(Nc1ccc(Cl)c(Cl)c1)N1C2CCC1C(F)c1ncncc12 (racemic) [Compound 114, trans-(±)-N-(3,4-Dichlorophenyl)-9-fluoro-6,7,8,9-tetrahydro-5H-5,8-epiminocyclohepta[d]pyrimidine-10-carboxamide] | 500 to 5000 |  |
| O=C(Nc1ccc(Br)cc1)N1C2CCC1c1ccnc(F)c1C2 (racemic) [Compound 168, (±)-N-(4-Bromophenyl)-1-fluoro-6,7,8,9-tetrahydro-5H-5,8-epiminocyclohepta[c]pyridine-10-carboxamide] |  | < 500 |

Reference: patent publication US20230373989A1, “N-PHENYLAMINOCARBONYL PYRIDINO-, PYRIMIDINO AND BENZO-TROPANES AS MODULATORS OF GPR65” (PATHIOS THERAPEUTICS LIMITED, priority 2020, published 2023)
